Data from US10961276B2, “Universal antivenom” (CAMRIS International, Inc., priority 2017, dated 2021).
Entries after “also recorded” stand apart in the source; their conditions may differ.

Test system: PLA2 of five major snake venoms in the U.S. (all major North American crotalid venoms)
Assay: Cross-species anti-PLA2 activity of phage clone
Assay type: biochemical
Details: five major snake venoms in the U.S. (FIG. 4)
Procedure: Analysis of PLAz activity was conducted using the EnzChek® PLAz Assay Kit (Thermo Fisher Scientific, Waltham, Mass.). Individual phage clones were standardized to […] and diluted in log steps. Diluted phages were incubated with 4.88 μg/ml Western Cottonmouth venom for 30 minutes at RT. Fluorescence emission spectra (excitation at 485 nm, emission at 528 nm) was measured for 20 minutes at 1.0 minute intervals to monitor the reaction. PLA2 activity was determined by comparing the phage inhibited venom to uninhibited venom controls.
Originally consensus peptide for panning target was designed with ˜95% homology of all major North American crotalid PLA2. This cross-species reactivity of the selected phage clone is the best evidence for the potential development of a universal antivenom using phage display technique.

With KLIHGNGVMDEG [Ph.D.-12-7] the “cross-species anti-PLA2 activities” value was “cross-species anti-PLA2 activity; also recorded: showed anti-PLA2 activities across all major North American crotalid venoms”.
